EP4483954A1 (Masarykova Univerzita, priority 2023, dated 2025)

Target: T1, Haspin (h) (Homo sapiens, UniProt Q8TF76)
T1 construct: purchased Eurofins (KinaseProfiler)
T1 sequence (Q8TF76 1-798): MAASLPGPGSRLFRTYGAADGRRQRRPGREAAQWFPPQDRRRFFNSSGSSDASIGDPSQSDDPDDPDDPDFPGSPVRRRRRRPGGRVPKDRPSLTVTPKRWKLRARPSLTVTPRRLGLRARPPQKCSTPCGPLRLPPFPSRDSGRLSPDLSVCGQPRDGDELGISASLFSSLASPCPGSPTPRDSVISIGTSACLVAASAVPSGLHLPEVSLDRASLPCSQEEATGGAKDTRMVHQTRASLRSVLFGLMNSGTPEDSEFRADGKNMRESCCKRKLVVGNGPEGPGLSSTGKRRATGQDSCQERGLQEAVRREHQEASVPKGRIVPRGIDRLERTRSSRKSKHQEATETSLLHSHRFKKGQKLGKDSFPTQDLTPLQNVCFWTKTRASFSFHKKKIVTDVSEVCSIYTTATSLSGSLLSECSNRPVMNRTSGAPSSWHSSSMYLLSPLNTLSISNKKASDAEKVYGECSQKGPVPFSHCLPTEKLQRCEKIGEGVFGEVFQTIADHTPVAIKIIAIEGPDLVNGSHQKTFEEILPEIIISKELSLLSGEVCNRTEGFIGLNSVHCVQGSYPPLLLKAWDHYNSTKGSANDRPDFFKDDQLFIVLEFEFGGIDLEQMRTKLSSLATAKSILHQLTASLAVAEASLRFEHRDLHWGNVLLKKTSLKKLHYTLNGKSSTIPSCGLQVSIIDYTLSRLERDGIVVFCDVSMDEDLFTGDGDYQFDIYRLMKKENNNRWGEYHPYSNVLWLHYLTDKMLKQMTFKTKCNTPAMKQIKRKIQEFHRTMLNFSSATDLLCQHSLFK
Assay: radiometric kinase assay (KinaseProfiler, Eurofins), Haspin
Format: biochemical
Settings: in vitro radiometric kinase assay, tested at 1 nM to 10 000 nM, no pre-incubation; read-out: inhibitory activities (IC50 values) Haspin
Protocol: The compounds were profiled in the radiometric assays (KinaseProfiler, Eurofins).
Briefly, kinases were diluted in the buffer shown below prior to addition to the reaction mix: • CDKL3, TAF1L: 20 mM Tris/HCl pH 8.5, 0.2 mM EDTA, 0.1% β-mercaptoethanol, 0.01% Brij-35, 5% glycerol, 1 mg/ml BSA; • Haspin: 15 mM MOPS, 0.75 mM EDTA, 0.0075% Brij-35, 3.75% Glycerol, 150 mM NaCl, 0.1% β-mercaptoethanol, 1 mg/mLBSA; • CDKL4, CLK2, PIM1, TRB2: […], 1 mM EDTA, 0.01% Brij-35, 5% Glycerol, 0.1% β-mercaptoethanol, 1 mg/mL BSA.
All compounds were prepared to 50x final assay concentration in 100% DMSO. This working stock of the compound was added to the assay well as the first component in the reaction, followed by the remaining components as detailed in the general assay protocols below. There was no pre-incubation step between the compound and the kinase prior to initiation of the reaction.
Haspin (h) was incubated with 8 mM MOPS pH 7.0, 0.2 mM EDTA, 500 µM RARTLSFAEPG (SEQ ID NO. 3), 10 mM magnesium acetate and γ-^33P-ATP (specific activity and concentration as required). The reaction was initiated by the addition of the Mg/ATP mix. After incubation for 40 minutes at room temperature, the reaction was stopped by the addition of phosphoric acid to a concentration of 0.5%. An aliquot of the reaction was then spotted onto a filter and washed four times for 4 minutes in 0.425% phosphoric acid and once in methanol prior to drying and scintillation counting.
Kinase activity data were expressed as the percent remaining kinase activity in tested samples compared to the vehicle (DMSO) reactions. The compounds were tested at the following concentrations: 1 nM, 3 nM, 10 nM, 30 nM, 100 nM, 300 nM, 1000 nM, 3000 nM, and 10 000 nM; IC50 values and curve fits were then obtained.

Row | Structure (SMILES) | IC50
1 | Cn1ccc(-c2ccc3scc(-c4ccns4)c3n2)n1 [Preparative Example 119, 3-(isothiazol-5-yl)-5-(1-methyl-1H-pyrazol-3-yl)thieno[3,2-b]pyridine] | 100 to 499 nM
2 | Cn1cc(-c2ccc3scc(-c4ccc5nccn5c4)c3n2)cn1 [Preparative Example 57, 3-(imidazo[1,2-a]pyridin-6-yl)-5-(1-methyl-1H-pyrazol-4-yl)thieno[3,2-b]pyridine] | 20 to 99 nM
3 | Cc1cc(Nc2ccc3scc(-c4ccncc4)c3n2)nn1C [Preparative Example 102, N-(1,5-dimethyl-1H-pyrazol-3-yl)-3-(pyridin-4-yl)thieno[3,2-b]pyridin-5-amine] | 100 to 499 nM
4 | Cn1ccc(Nc2ccc3scc(-c4ccc5nncn5c4)c3n2)n1 [Preparative Example 135, 3-([1,2,4]triazolo[4,3-a]pyridin-6-yl)-N-(1-methyl-1H-pyrazol-3-yl)thieno[3,2-b]pyridin-5-amine] | 500 to 3000 nM
5 | Cn1cc(-c2ccc3scc(-c4ccnc(NC(=O)OC(C)(C)C)c4)c3n2)cn1 [Preparative Example 24, tert-butyl (4-(5-(1-methyl-1H-pyrazol-4-yl)thieno[3,2-b]pyridin-3-yl)pyridin-2-yl)carbamate] | 100 to 499 nM
6 | Cn1cc(-c2ccc3scc(-c4ccc5nncn5c4)c3n2)cn1 [Preparative Example 59, 3-([1,2,4]-triazolo[4,3-a]pyridin-6-yl)-5-(1-methyl-1H-pyrazol-4-yl)thieno[3,2-b]pyridine] | 100 to 499 nM
7 | c1ccc(-c2csc3ccc(-c4cn[nH]c4)nc23)cc1 [Preparative Example 121, 3-phenyl-5-(1H-pyrazol-4-yl)thieno[3,2-b]pyridine] | 100 to 499 nM
8 | c1cc(-c2csc3ccc(-c4ccns4)nc23)ccn1 [Preparative Example 92, 5-(isothiazol-5-yl)-3-(pyridin-4-yl)thieno[3,2-b]pyridine] | 500 to 3000 nM
9 | c1ccc(-c2ccc3scc(-c4ccncc4)c3n2)nc1 [Preparative Example 111, 5-(pyridin-2-yl)-3-(pyridin-4-yl)thieno[3,2-b]pyridine] | 100 to 499 nM
10 | Cn1cc(-c2ccc3scc(-c4cc5ncccn5n4)c3n2)cn1 [Preparative Example 61, 5-(1-methyl-1H-pyrazol-4-yl)-3-(pyrazolo[1,5-a]pyrimidin-2-yl)thieno[3,2-b]pyridine] | 100 to 499 nM
11 | COC(=O)c1cn(C)nc1Nc1ccc2scc(-c3ccnc(CN)c3)c2n1 [Preparative Example 128, Methyl 3-((3-(2-(aminomethyl)pyridin-4-yl)thieno[3,2-b]pyridin-5-yl)amino)-1-methyl-1H-pyrazole-4-carboxylate] | 3000 to 10000 nM
12 | c1cnc(-c2ccc3scc(-c4ccc5ncnn5c4)c3n2)nc1 [Preparative Example 130, 3-([1,2,4]triazolo[1,5-a]pyridin-6-yl)-5-(pyrimidin-2-yl)thieno[3,2-b]pyridine] | 500 to 3000 nM
13 | CCOC(=O)c1cn(C)nc1Nc1ccc2scc(-c3ccnc(NC(=O)OC(C)(C)C)c3)c2n1 [Preparative Example 126, Ethyl 3-((3-(2-((tert-butoxycarbonyl)amino)pyridin-4-yl)thieno[3,2-b]pyridin-5-yl)amino)-1-methyl-1H-pyrazole-4-carboxylate] | 3000 to 10000 nM
14 | CCn1ccc(-c2ccc3scc(-c4ccncc4)c3n2)n1 [Preparative Example 87, 5-(1-ethyl-1H-pyrazol-3-yl)-3-(pyridin-4-yl)thieno[3,2-b]pyridine] | 500 to 3000 nM
15 | Cn1cc(-c2ccc3scc(-c4ccc(F)cc4)c3n2)cn1 [Preparative Example 6, 3-(4-fluorophenyl)-5-(1-methyl-1H-pyrazol-4-yl)-thieno[3,2-b]pyridine] | 100 to 499 nM
16 | Cc1sc2ccc(-c3ccn(C)n3)nc2c1-c1ccncc1 [Preparative Example 143, 2-methyl-5-(1-methyl-1H-pyrazol-3-yl)-3-(pyridin-4-yl)thieno[3,2-b]pyridine] | 500 to 3000 nM
17 | c1cc(-c2csc3ccc(Nc4ccncn4)nc23)ccn1 [Preparative Example 114, 3-(pyridin-4-yl)-N-(pyrimidin-4-yl)thieno[3,2-b]pyridin-5-amine] | 500 to 3000 nM
18 | Cn1cc(-c2ccc3scc(-c4ccnc5[nH]ccc45)c3n2)cn1 [Preparative Example 45, 5-(1-methyl-1H-pyrazol-4-yl)-3-(1H-pyrrolo[2,3-b]pyridin-4-yl)thieno[3,2-b]pyridine] | 100 to 499 nM
19 | Cn1cc(-c2ccc3scc(-c4ccc5n[nH]cc5c4)c3n2)cn1 [Preparative Example 51, 3-(2H-indazol-5-yl)-5-(1-methyl-1H-pyrazol-4-yl)thieno[3,2-b]-pyridine] | 100 to 499 nM
20 | c1nc2ccc(-c3csc4ccc(Nc5cn[nH]c5)nc34)cn2n1 [Preparative Example 134, 3-([1,2,4]triazolo[1,5-a]pyridin-6-yl)-N-(1H-pyrazol-4-yl)thieno[3,2-b]pyridin-5-amine] | 100 to 499 nM
21 | Cn1cc(-c2ccc3scc(-c4ccnc(O)c4)c3n2)cn1 [Preparative Example 18, 4-(5-(1-methyl-1H-pyrazol-4-yl)thieno[3,2-b]-pyridin-3-yl)pyridin-2-ol] | 100 to 499 nM
22 | CSc1cn(C)nc1Nc1ccc2scc(-c3ccncc3)c2n1 [Preparative Example 106, N-(1-methyl-4-(methylthio)-1H-pyrazol-3-yl)-3-(pyridin-4-yl)thieno[3,2-b]pyridin-5-amine] | 100 to 499 nM
23 | Cn1cc(-c2ccc3scc(-c4ccnc(CNC(=O)OC(C)(C)C)c4)c3n2)cn1 | 3000 to 10000 nM
24 | CC(C)(C)OC(=O)N1CCOC(COc2ccc3scc(-c4ccncc4)c3n2)C1 (stereo not shown) [Preparative Example 116, tert-butyl 2-(((3-(pyridin-4-yl)thieno[3,2-b]pyridin-5-yl)oxy)-methyl)morpholine-4-carboxylate] | 3000 to 10000 nM
25 | Cn1ccc(-c2ccc3scc(-c4ccc5ncnn5c4)c3n2)n1 [Preparative Example 129, 3-([1,2,4]triazolo[1,5-a]pyridin-6-yl)-5-(1-methyl-1H-pyrazol-3-yl)thieno[3,2-b]pyridine] | 100 to 499 nM
